Data: patent US9233167B2, “Oligomer-opioid agonist conjugates” (NEKTAR THERAPEUTICS, priority 2007, dated 2016)

Columns and labels:
[1] = rats, 25 mg/kg intravenously, one hour after injection
[2] = target: T1, recombinant human delta opioid receptor (Homo sapiens (Human), UniProt P41143); details: GTP-γS binding, up to 10 μM
Description: The reaction is initiated by 0.3 nM [^35S]GTPγS for an additional 30 minutes incubation period.

[3] = target: T1, recombinant human delta opioid receptor; details: Ki relative to nalbuphine
Description: (§1) Using conventional receptor binding assay techniques, several molecules were assayed to determine binding activity at kappa, mu and delta opioid subtypes of opioid receptors.
(§2) Cells were plated in 24 well plates at a density of 0.2-0.3*10^6 cells/well and washed with assay buffer containing 50 mM Tris.HCl and 5 mM MgCl2 (pH 7.4). Competition binding assays were conducted in whole cells incubated with increasing concentrations of test compounds in the presence of appropriate concentration of radioligand. 0.5 nM ^3H Naloxone, 0.5 nM ^3H Diprenorphine and 0.5 nM ^3H DPDPE were used as the competing radioligands for mu, kappa and delta receptors respectively. Incubations were carried out for two hours at room temperature using triplicate wells at each concentration. At the end of the incubation, cells were washed with 50 mM Tris HCl (pH 8.0), solubilized with NaOH and bound radioactivity was measured using a scintillation counter.
(§3) Specific binding is determined by subtraction of the cpm bound in the presence of 50-100× excess of cold ligand. Binding data assays were analyzed using GraphPad Prism 4.0 and IC50 is generated by non-linear regression from dose-response curves.

[4] = target: recombinant human kappa opioid receptor (Homo sapiens (Human), UniProt P41145); type: binding
Description: as §1, §2, §3

[5] = target: recombinant human mu opioid receptor (Homo sapiens (Human), UniProt P35372); type: binding
Description: as §1, §2, §3

T1 sequence (P41143 whole entry, looked up): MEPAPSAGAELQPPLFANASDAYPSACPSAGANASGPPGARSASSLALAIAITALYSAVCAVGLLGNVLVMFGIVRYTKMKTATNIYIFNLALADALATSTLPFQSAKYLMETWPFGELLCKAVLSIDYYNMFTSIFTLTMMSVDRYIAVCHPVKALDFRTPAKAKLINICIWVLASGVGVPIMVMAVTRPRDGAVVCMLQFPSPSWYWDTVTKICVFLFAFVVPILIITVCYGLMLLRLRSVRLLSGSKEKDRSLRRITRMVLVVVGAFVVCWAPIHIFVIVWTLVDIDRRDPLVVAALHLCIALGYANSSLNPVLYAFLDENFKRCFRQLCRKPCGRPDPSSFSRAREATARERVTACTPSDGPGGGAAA

In the case of COCCOCCOCCO[C@H]1CC[C@@]2(O)[C@H]3Cc4ccc(O)c5c4[C@@]2(CCN3CC2CCC2)[C@H]1O5 [6-O-mPEG3-Nalbuphine, 6-O-mPEG3-nalbuphine], the “brain:plasma ratio” value [1] was 0.23, the “effect at the delta opioid receptor” value [2] was “no effect” and the “Fold vs Nalbuphine At DELTA” value [3] was 0.51. The “Fold vs Nalbuphine at KAPPA” value [4] was 8.40 and the “Fold vs Nalbuphine At MU” value [5] was 1.92.
